Source: patent US20040166509A1, “Detecting hormonally active compounds” (priority 2002, published 2004)

Columns and labels:
[1] = system: hepatic mRNA of adult male SHMs; experiment: SHM cDNA macroarray (30 genes): hepatic gene expression profiles of exposed fish; type: in vivo, sheepshead minnow (SHM)
[2] = system: estrogen receptors alpha, beta, and gamma, and Vtg 1 mRNA; experiment: Real-time PCR of ER and Vtg 1 mRNA in LMB liver; type: in vivo, largemouth bass (LMB); conditions: male LMB liver, 48 h after IP 4-NP 50 mg/kg + ICI 182,780 1.0 mg/kg
Text: Experimental Design and Sample Collection: Adult male LMB were purchased from American Sports Fish Hatchery (Montgomery, Ala.) and maintained in fiberglass tanks as previously described (Larkin et al., Comp. Biochem. Physiol. B. Biochem. Mol. Biol. 133:543-557, 2002; Larkin et al., Marine Environ. Res. 54:395-399, 2002; and Larkin et al., Comparative Biochemistry and Physiology 133:543-557, 2002). Array technology as a tool to monitor exposure of fish to xenoestrogens. Marine Environ. Res., 2002; Bowman et al., Mol. Cell. Endocrinol. 196:67-77, 2002). Each fish was injected IP with either 50 mg/kg 4-NP (Fluka, St. Louis, Mo. # 74430), the combination of 50 mg/kg 4-NP and 1.0 mg/kg ICI 182,780 (Tocris Cookson), or vehicle, which consisted of ethanol and DMSO (Sigma, St. Louis, Mo. #5879). Each dose was dissolved in 1 ml of ethanol and then diluted to the appropriate concentration with DMSO. The fish were euthanized by submersion in a water bath containing 50-100 ppm […] 48 hours post injection and sacrificed by a sharp blow to the head followed by cervical transaction. The livers were excised and immediately flash frozen in liquid nitrogen. The frozen tissues were stored at −80° C. until RNA was isolated.
RNA Isolation: Isolation of total RNA from liver tissue was performed with the RNA Stat-60 reagent (Tel-test). Briefly, 30 mg-50 mg of tissue stored in RNA later was homogenized in 0.9 mls STAT 60, choloroform was added, and the mixture was centrifuged at 12,000 g for 15 minutes at 4° C. The extraction process was repeated and the pooled RNA was added to 500 μl isopropanol and allowed to precipitate at −20° C. for at least one hour. Following centrifugation at 12,000 g for 50 minutes, the pellet was washed with 70% ethanol, air dried and resuspended in an appropriate volume (50 μl-120 μl of RNA secure. The samples were treated with RNA secure (Ambion, Austin Tex. #7010) to inactivate contaminating RNases. All isolated RNA was treated with DNase solution (Ambion, Austin, Tex. #1906) following the manufacture's protocol. For all RNA samples, the quantity and quality of total RNA was assessed by spectrophotometric readings at 260 nm and by electrophoresis through a 1% formaldahyde agarose gel stained with ethidium bromide.
Real-Time PCR: Real time PCR was performed using reagents and a 5700 thermocycler purchased from Applied Biosystems (ABI, Foster City, Calif.). The nucleotide sequences of the primers for the ER subtypes and Vtg 1 are as follows: 5′, […] (SEQ ID NO:563) AND 5′[…] (SEQ ID NO:564). Probes and primers for the ER subtypes and Vtg 1 are described in Bowman et al., Ecotoxicology 8:399-416, 1999; and Bowman et al., Mol. Cell Endocrinol. 196:67-77, 2002. Each real time PCR reaction consisted of 0.01-0.2 μg of reverse transcribed total RNA from liver tissue, 1× universal Taqman master mix (ABI, Foster City, Calif.), and primers and probes in a 25 μl reaction. […] Statistical differences between the treatments were determined by one way analysis of variance with Dunnets post-hoc analysis.
Measurement of ER and Vtg 1 mRNA by real-time PCR: Real-time PCR is a sensitive assay that can be used to quantitate expression levels of genes. Using this technology, assays were designed to quantitate the expression of 4 genes, estrogen receptors alpha, beta, and gamma, and Vtg 1 in LMB following exposure to 4-NP and 4-NP/ICI 182,780. […]

[3] = system: hepatic RNA of LMB; experiment: LMB gene array (132 genes): hepatic gene expression after IP injection; type: in vivo, largemouth bass (LMB); conditions: two-fold cutoff vs control; for LMB83 vitellogenin-2 (Vtg 2) expression / LMB87 vitellogenin-1 (Vtg 1) expression / LMB97 choriogenin-3 expression / LMB108-1 choriogenin-2 expression / LMB47-2 (clone 47-2) expression: male LMB liver; for LMB83 vitellogenin-2 (Vtg 2) expression / LMB87 vitellogenin-1 (Vtg 1) expression / LMB97 choriogenin-3 expression / LMB108-1 choriogenin-2 expression: 48 h after single IP dose: E2 2.5 mg/kg, 4-NP 50 mg/kg or p,p′-DDE 100 mg/kg
[4] = Estrogen receptor alpha (clone ID not given)
[5] = clone SHM2-1: vitellogenin alpha (2)
[6] = clone SHM72-3: Coagulation Factor XI
[7] = clone SHM76-2: Alphal-microglobulin/bikunin precursor (AMBP) protein
[8] = male SHM liver, EE2 24, 109 or 832 ng/L, 4 days
[9] = female LMB liver, 48 h after single IP p,p′-DDE 100 mg/kg
[10] = female LMB liver, 48 h after single IP p,p′-DDE 100 mg/kg, listed as p, p′-DDE

**Q.** Which results are given for `COc1ccc(C(c2ccc(OC)cc2)C(Cl)(Cl)Cl)cc1` [MXC, methoxychlor]?
**A.** Regulation [1, 4]: up-reg E2; EE2,; Regulation [1, 5]: up-reg E2; EE2,; Regulation ([1]; clone SHM11: Transferrin): dn-reg E2; EE2,; Regulation [1, 6]: up-reg E2; EE2,; Regulation [1, 7]: d-reg E2; EE2,

**Q.** How did the Regulation [1, 4] turn out when `C#C[C@]1(O)CC[C@H]2[C@@H]3CCc4cc(O)ccc4[C@H]3CC[C@@]21C` [EE2, 17α-ethynyl estradiol] was run?
**A.** Its Regulation is “up-reg E2; EE2,”.

**Q.** What about the Regulation [1, 5] of the same compound?
**A.** The Regulation was “up-reg E2; EE2,”.

**Q.** What about the Regulation ([1]; clone SHM11: Transferrin) of the same compound?
**A.** Its Regulation is “dn-reg E2; EE2,”.

**Q.** What about the Regulation [1, 6] of the same compound?
**A.** The Regulation was “up-reg E2; EE2,”.

**Q.** What about the Regulation [1, 7] of the same compound?
**A.** The Regulation was “d-reg E2; EE2,”.

**Q.** What about the “ER α expression, EE2 dose response” value [1, 8] of the same compound?
**A.** Its value is “increase in a concentration dependent manner”.

**Q.** And the “Vtg α expression, EE2 dose response” value [1, 8]?
**A.** Its value is “increase in a concentration dependent manner”.

**Q.** And the “Vtg β expression, EE2 dose response” value [1, 8]?
**A.** The value was “increase in a concentration dependent manner”.

**Q.** What about the “alpha-1-microglobulin/bikunin precursor protein expression, EE2 dose response” value [1, 8] of the same compound?
**A.** The value was “decrease in a dose-dependent manner”.

**Q.** And the “beta actin expression, EE2 dose response” value [1, 8]?
**A.** The value was “decrease in a dose-dependent manner”.

**Q.** What about the “choriogenin 2 expression, EE2 dose response” value [1, 8] of the same compound?
**A.** The value was “increase in a concentration dependent manner”.

**Q.** What about the “choriogenin 3 expression, EE2 dose response” value [1, 8] of the same compound?
**A.** Its value is “increase in a concentration dependent manner”.

**Q.** And the “clone ND107-B expression, EE2 dose response” value [1, 8]?
**A.** Its value is “increase in a concentration dependent manner”.

**Q.** And the “transferrin expression, EE2 dose response” value [1, 8]?
**A.** Its value is “decrease in a dose-dependent manner”.

**Q.** Which “repression of 4-NP induction of Vtg 1 mRNA by addition of ICI 182,780” value [2] does the source give for `C[C@]12CC[C@@H]3c4ccc(O)cc4C[C@@H](CCCCCCCCC[S+]([O-])CCCC(F)(F)C(F)(F)F)[C@H]3[C@@H]1CC[C@@H]2O` (stereo partly shown) [ICI 182,780] here?
**A.** Its value is “not repressed”.

**Q.** What does the source list for `ClC(Cl)=C(c1ccc(Cl)cc1)c1ccc(Cl)cc1` [p,p′-DDE]?
**A.** LMB5 vitellogenin-2A expression, female [3, 9]: NP; Dn-reg; LMB50-1 (clone 50-1) expression, female [3, 9]: Down reg NP;; LMB53-1 (clone 53-1) expression, female [3, 9]: Down-reg. E2;; LMB71-1 (clone 71-1) expression, female [3, 9]: down-reg; LMB83 vitellogenin-2 expression, female [3, 9]: dn-reg DDE(F); LMB87 vitellogenin-1 expression, female [3, 9]: dn-reg DDE(F); LMB94-1 transferrin expression, female [3, 9]: Down-reg.; LMB101-1 (clone 101-1) expression, female [3, 9]: Dn; LMB102-1 chemotaxin expression, female [3, 9]: down-reg; LMB107-1 (clone 107-1) expression, female [3, 9]: down-reg; LMB108-1 choriogenin-2 expression, female [3, 9]: DDE(M); Dn-; LMB112-1 cathepsin (Aspartic protease) expression, female [3, 9]: DHT; Dn-DDE (F); LMB118-1 apolipoprotein precursor (clone 118-1) expression, female [3, 9]: down-reg; LMB120-1 hypothetical protein (clone 120-1) expression, female [3, 9]: donw-reg; LMB128-1 (clone 128-1) expression, female [3, 9]: down-reg; LMB141 vitellogenin-3 expression, female [3, 9]: dn DDE (F); LMB150 androgen receptor expression, female [3, 9]: Dn-reg DDE(F); four Vtg's expression, female [3, 9]: down-regulated; genes up-regulated in female fish [3, 9]: no genes were identified as up-regulated; LMB50-1 (clone 50-1) expression, female [3, 10]: down-regulated; LMB53-1 (clone 53-1) expression, female [3, 10]: down-regulated; LMB71-1 (clone 71-1) expression, female [3, 10]: down-regulated; LMB94-1 transferrin expression, female [3, 10]: down-regulated; LMB101-1 (clone 101-1) expression, female [3, 10]: down-regulated; LMB102-1 chemotaxin expression, female [3, 10]: down-regulated; LMB107-1 (clone 107-1) expression, female [3, 10]: down-regulated; LMB108-1 choriogenin-2 expression, female [3, 10]: down-regulated; LMB112-1 cathepsin (Aspartic protease) expression, female [3, 10]: down-regulated; LMB118-1 apolipoprotein precursor (clone 118-1) expression, female [3, 10]: down-regulated; LMB120-1 hypothetical protein (clone 120-1) expression, female [3, 10]: down-regulated; LMB128-1 (clone 128-1) expression, female [3, 10]: down-regulated; LMB150 androgen receptor expression, female [3, 10]: down-regulated; LMB83 vitellogenin-2 (Vtg 2) expression [3]: up-reg E2;; LMB87 vitellogenin-1 (Vtg 1) expression [3]: up-reg E2;; LMB97 choriogenin-3 expression [3]: Up-reg E2;; LMB108-1 choriogenin-2 expression [3]: Up-reg E2; NP;; LMB83 vitellogenin-2 (Vtg 2) expression ([3]; listed as p, p′-DDE): up-regulated; LMB87 vitellogenin-1 (Vtg 1) expression ([3]; listed as p, p′-DDE): up-regulated; LMB97 choriogenin-3 expression ([3]; listed as p, p′-DDE): up-regulated; LMB108-1 choriogenin-2 expression ([3]; listed as p, p′-DDE): up-regulated; LMB47-2 (clone 47-2) expression ([3]; 48 h after single IP p,p′-DDE 100 mg/kg): Down-reg; LMB47-2 (clone 47-2) expression ([3]; 48 h after single IP p,p′-DDE 100 mg/kg, listed as p, p′-DDE): down-regulated

**Q.** Which results are given for `CC/C(=C(/CC)c1ccc(O)cc1)c1ccc(O)cc1` [DES, diethylstilbestrol]?
**A.** Regulation [1, 4]: up-reg E2; EE2,; Regulation [1, 5]: up-reg E2; EE2,; Regulation ([1]; clone SHM11: Transferrin): dn-reg E2; EE2,; Regulation [1, 6]: up-reg E2; EE2,; Regulation [1, 7]: d-reg E2; EE2,
